Holding throughout (assay type): cell-based
What all share (details): compounds at 50 nM and 500 nM

One assay addresses T1, WEE1 (Homo sapiens, UniProt P30291+Q96SW2).
T1 construct: The supernatant was aspirated as the extracted total cell protein; endogenous in cells; host or cells: human peripheral blood mononuclear cells (hPBMCs)
As to the kind of experiment: Western blot degradation of WEE1 in hPBMCs (24 h). A digest of the protocol: (§1)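 hPBMCs (1×10^6 cells/mL) were treated with compound at 50 nM and 500 nM for 24 h, lysed in RIPA with protease inhibitors and analysed by SDS-PAGE/Western blot. Band grayscale, normalised to internal control, gave protein remaining (%); DC50 estimated versus DMSO bands.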
For orientation: In western blotting, separated proteins are transferred to a membrane and probed.

In a further assay the target is T2, GSPT1 (Homo sapiens, UniProt P15170+Q96SW2).
T2 construct: The supernatant was aspirated as the extracted total cell protein; endogenous in cells; host or cells: human peripheral blood mononuclear cells (hPBMCs)
T2 sequence (P15170 whole entry): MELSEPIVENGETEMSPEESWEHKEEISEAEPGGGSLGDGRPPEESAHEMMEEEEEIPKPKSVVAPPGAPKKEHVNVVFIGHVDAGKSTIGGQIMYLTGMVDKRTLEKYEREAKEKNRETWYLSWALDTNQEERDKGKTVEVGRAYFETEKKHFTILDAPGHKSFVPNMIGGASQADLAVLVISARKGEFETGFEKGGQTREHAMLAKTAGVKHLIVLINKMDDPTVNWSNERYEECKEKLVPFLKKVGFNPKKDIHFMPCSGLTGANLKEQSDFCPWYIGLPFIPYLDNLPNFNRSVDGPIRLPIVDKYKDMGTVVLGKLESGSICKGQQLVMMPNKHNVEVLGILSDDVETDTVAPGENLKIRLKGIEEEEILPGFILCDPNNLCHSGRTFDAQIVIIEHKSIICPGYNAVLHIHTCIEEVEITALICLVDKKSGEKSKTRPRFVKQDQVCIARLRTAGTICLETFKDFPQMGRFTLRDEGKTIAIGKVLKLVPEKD
T2 sequence (Q96SW2 whole entry): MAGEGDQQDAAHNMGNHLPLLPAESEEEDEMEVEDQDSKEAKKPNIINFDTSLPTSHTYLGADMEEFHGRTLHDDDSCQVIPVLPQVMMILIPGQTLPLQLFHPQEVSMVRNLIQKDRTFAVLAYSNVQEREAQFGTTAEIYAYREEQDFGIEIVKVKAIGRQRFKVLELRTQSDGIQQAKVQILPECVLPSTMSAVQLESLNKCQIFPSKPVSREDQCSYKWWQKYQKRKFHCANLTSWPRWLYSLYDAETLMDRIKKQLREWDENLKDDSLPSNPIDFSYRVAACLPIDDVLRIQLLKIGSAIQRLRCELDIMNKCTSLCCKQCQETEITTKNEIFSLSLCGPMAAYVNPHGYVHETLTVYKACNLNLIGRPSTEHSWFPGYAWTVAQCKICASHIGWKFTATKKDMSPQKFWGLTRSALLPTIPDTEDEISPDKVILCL
T2 sequence (Q16531 whole entry partner): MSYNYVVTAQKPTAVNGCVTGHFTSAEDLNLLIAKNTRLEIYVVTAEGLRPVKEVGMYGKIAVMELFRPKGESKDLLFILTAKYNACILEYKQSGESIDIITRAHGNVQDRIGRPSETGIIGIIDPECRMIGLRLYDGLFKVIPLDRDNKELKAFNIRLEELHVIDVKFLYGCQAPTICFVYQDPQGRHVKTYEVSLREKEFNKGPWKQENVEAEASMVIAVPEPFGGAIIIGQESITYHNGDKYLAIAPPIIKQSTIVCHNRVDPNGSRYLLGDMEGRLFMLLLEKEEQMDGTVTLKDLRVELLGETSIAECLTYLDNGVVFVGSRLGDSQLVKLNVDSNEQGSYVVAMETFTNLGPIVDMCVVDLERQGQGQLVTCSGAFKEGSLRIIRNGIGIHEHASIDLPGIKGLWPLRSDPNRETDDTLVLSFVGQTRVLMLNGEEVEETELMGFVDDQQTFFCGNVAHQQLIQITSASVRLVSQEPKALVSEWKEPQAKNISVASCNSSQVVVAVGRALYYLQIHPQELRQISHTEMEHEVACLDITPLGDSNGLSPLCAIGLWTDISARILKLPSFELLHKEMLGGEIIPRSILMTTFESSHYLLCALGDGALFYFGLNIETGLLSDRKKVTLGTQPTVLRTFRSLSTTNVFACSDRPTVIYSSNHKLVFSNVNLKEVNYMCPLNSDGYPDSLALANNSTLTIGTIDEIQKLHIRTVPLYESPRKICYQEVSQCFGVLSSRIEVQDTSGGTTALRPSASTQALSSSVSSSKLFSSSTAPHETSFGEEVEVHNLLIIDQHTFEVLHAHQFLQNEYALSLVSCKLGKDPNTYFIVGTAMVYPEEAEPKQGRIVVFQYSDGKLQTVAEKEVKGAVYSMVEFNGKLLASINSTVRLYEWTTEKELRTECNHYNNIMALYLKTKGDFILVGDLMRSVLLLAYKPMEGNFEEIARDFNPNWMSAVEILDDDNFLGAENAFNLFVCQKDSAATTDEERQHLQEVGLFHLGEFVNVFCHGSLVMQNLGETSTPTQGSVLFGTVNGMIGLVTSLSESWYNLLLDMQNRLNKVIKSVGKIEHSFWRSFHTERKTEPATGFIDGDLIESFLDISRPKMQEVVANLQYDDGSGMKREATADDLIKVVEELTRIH
Description: Western blot degradation of GSPT1 in hPBMCs (24 h). A digest of the protocol: as §1

Another assay has as its target T3, IKZF1 (Homo sapiens, UniProt Q13422+Q96SW2).
T3 construct: The supernatant was aspirated as the extracted total cell protein; endogenous in cells; host or cells: human peripheral blood mononuclear cells (hPBMCs)
Description: Western blot degradation of IKZF1 in hPBMCs (24 h). A digest of the protocol: as §1

The target in another assay is T4, CK1α (Homo sapiens, UniProt P48729+Q96SW2).
T4 construct: The supernatant was aspirated as the extracted total cell protein; endogenous in cells; host or cells: human peripheral blood mononuclear cells (hPBMCs)
T4 sequence (P48729 whole entry): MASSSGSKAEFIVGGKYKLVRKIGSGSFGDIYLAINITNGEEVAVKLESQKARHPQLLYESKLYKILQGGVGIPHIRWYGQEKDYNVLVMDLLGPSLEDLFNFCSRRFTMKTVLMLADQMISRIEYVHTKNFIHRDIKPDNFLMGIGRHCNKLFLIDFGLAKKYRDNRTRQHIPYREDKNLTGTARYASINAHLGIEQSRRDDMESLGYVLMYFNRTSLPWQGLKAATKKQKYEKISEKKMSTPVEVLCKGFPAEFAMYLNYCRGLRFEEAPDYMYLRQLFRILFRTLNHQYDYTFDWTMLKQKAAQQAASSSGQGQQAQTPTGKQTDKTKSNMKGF
T4 sequence (Q96SW2 whole entry): as the sequence (Q96SW2 whole entry) above
T4 sequence (Q16531 whole entry partner): as the sequence (Q16531 whole entry partner) above
Description: Western blot degradation of CK1α in hPBMCs (24 h). A digest of the protocol:
as §1

The next assay concerns the target T5, IKZF3 (Homo sapiens, UniProt Q96SW2+Q9UKT9).
T5 construct: The supernatant was aspirated as the extracted total cell protein; endogenous in cells; host or cells: human peripheral blood mononuclear cells (hPBMCs)
Description: Western blot degradation of IKZF3 in hPBMCs (24 h). A digest of the protocol:
as §1

The next assay addresses T6, IKZF2 (Homo sapiens, UniProt Q96SW2+Q9UKS7).
T6 construct: The supernatant was aspirated as the extracted total cell protein; endogenous in cells; host or cells: human peripheral blood mononuclear cells (hPBMCs)
Description: Western blot degradation of IKZF2 in hPBMCs (24 h). A digest of the protocol:
as §1

T3 sequence (Q13422 whole entry): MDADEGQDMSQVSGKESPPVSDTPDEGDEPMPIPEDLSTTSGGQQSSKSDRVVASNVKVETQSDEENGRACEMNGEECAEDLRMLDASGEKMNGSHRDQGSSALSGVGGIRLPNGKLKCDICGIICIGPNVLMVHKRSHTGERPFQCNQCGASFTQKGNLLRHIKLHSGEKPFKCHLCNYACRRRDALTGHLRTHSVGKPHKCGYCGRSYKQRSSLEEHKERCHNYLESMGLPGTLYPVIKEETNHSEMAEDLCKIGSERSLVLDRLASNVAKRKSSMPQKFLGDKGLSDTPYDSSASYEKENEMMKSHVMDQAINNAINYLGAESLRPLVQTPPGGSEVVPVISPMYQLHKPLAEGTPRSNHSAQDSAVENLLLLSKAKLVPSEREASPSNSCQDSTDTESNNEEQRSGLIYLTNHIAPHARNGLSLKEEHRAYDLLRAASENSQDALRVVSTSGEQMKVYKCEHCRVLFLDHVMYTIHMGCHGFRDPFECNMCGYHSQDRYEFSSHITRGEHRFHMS
T3 sequence (Q96SW2 whole entry): as the sequence (Q96SW2 whole entry) above
T3 sequence (Q16531 whole entry partner): as the sequence (Q16531 whole entry partner) above
T1 sequence (P30291 whole entry): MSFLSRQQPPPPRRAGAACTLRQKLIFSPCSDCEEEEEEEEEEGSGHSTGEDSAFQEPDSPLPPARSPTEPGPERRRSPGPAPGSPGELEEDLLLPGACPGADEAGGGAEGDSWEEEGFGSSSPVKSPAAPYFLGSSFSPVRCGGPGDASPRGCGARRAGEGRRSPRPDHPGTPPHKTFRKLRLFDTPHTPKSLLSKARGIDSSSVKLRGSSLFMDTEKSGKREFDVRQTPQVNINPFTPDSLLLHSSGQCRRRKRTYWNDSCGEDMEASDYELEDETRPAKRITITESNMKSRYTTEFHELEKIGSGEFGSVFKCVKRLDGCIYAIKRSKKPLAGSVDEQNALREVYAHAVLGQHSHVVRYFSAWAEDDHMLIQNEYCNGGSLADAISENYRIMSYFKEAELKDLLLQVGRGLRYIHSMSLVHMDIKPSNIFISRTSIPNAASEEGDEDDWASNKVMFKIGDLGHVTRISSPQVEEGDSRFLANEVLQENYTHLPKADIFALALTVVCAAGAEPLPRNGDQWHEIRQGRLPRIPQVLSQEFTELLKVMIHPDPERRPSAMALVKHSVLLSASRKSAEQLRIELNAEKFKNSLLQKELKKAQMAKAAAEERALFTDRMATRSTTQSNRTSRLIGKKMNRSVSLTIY
T1 sequence (Q96SW2 whole entry): as the sequence (Q96SW2 whole entry) above
T1 sequence (Q16531 whole entry partner): as the sequence (Q16531 whole entry partner) above
T5 sequence (Q9UKT9 whole entry): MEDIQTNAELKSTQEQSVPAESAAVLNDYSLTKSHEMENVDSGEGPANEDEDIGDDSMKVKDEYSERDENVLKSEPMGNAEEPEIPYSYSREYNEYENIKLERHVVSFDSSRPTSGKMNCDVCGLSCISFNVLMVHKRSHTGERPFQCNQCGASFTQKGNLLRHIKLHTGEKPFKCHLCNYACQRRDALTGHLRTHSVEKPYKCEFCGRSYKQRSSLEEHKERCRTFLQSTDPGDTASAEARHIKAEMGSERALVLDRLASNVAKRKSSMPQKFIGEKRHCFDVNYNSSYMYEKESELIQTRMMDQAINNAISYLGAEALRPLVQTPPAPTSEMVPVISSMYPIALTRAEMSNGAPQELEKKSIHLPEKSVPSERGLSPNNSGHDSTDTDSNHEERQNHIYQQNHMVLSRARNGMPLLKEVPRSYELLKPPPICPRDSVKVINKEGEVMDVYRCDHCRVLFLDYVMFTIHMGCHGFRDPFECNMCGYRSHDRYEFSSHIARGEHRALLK
T5 sequence (Q96SW2 whole entry): as the sequence (Q96SW2 whole entry) above
T5 sequence (Q16531 whole entry partner): as the sequence (Q16531 whole entry partner) above

With `O=C1CCN(N2C(=O)c3ccc(CN4CCN(c5n[nH]c6cc(F)ccc56)CC4)cc3C2=O)C(=O)N1` [GT-07527, 2-(2,4-dioxotetrahydropyrimidin-1(2H)-yl)-5-((4-(6-fluoro-1H-indazol-3-yl)piperazin-1-yl)methyl)isoindoline-1,3-dione], the “WEE1 substrate protein remaining %” value at WEE1 was “B (80%< substrate protein remaining % ≤100%)”. For the same compound, at GSPT1, the “GSPT1 substrate protein remaining %” value is “A (0% ≤ substrate protein remaining % ≤80%)”. In addition, the “IKZF1 substrate protein remaining %” value at IKZF1 is reported as “B (80%< substrate protein remaining % ≤100%)”. Moreover, the “CK1α substrate protein remaining %” value at CK1α is given as “A (0% ≤ substrate protein remaining % ≤80%)”. The “IKZF3 substrate protein remaining %” value at IKZF3 is recorded as “B (80%< substrate protein remaining % ≤100%)”. The “IKZF2 substrate protein remaining %” value on IKZF2 is listed as “B (80%< substrate protein remaining % ≤100%)”.
`O=C1CCN(N2C(=O)c3ccc(CN4CCN(c5c[nH]c6ncccc56)CC4)cc3C2=O)C(=O)N1` [GT-07528, 5-((4-(1H-pyrrolo[2,3-b]pyridin-3-yl)piperazin-1-yl)methyl)-2-(2,4-dioxotetrahydropyrimidin-1(2H)-yl)isoindoline-1,3-dione]: the “WEE1 substrate protein remaining %” value on WEE1 is on record as “B (80%< substrate protein remaining % ≤100%)”. On GSPT1, the “GSPT1 substrate protein remaining %” value is “A (0% ≤ substrate protein remaining % ≤80%)”. Besides, the “IKZF1 substrate protein remaining %” value at IKZF1 was “B (80%< substrate protein remaining % ≤100%)”. On CK1α, the “CK1α substrate protein remaining %” value is recorded as “A (0% ≤ substrate protein remaining % ≤80%)”. Further, the “IKZF3 substrate protein remaining %” value on IKZF3 is given as “B (80%< substrate protein remaining % ≤100%)”. Moreover, the “IKZF2 substrate protein remaining %” value on IKZF2 is “B (80%< substrate protein remaining % ≤100%)”.
Consider `O=C1CCN(N2C(=O)c3ccc(CN4CCC(n5cnc6cc(F)ccc65)CC4)cc3C2=O)C(=O)N1` [GT-07529, 2-(2,4-dioxotetrahydropyrimidin-1(2H)-yl)-5-((4-(5-fluoro-1H-benzo[d]imidazol-1-yl)piperidin-1-yl)methyl)isoindoline-1,3-dione], for which the “WEE1 substrate protein remaining %” value at WEE1 was “B (80%< substrate protein remaining % ≤100%)”. Moreover, the “GSPT1 substrate protein remaining %” value at GSPT1 is recorded as “A (0% ≤ substrate protein remaining % ≤80%)”. In addition, on IKZF1, the “IKZF1 substrate protein remaining %” value was “B (80%< substrate protein remaining % ≤100%)”. The “CK1α substrate protein remaining %” value at CK1α was “A (0% ≤ substrate protein remaining % ≤80%)”. In addition, the “IKZF3 substrate protein remaining %” value at IKZF3 is “B (80%< substrate protein remaining % ≤100%)”. Further, the “IKZF2 substrate protein remaining %” value at IKZF2 is “B (80%< substrate protein remaining % ≤100%)”.
In the case of `O=C1CCN(N2C(=O)c3ccc(CN4CCC(c5n[nH]c6cc(F)ccc56)CC4)cc3C2=O)C(=O)N1` [GT-07530, 2-(2,4-dioxotetrahydropyrimidin-1(2H)-yl)-5-((4-(6-fluoro-1H-indazol-3-yl)piperidin-1-yl)methyl)isoindoline-1,3-dione], the “WEE1 substrate protein remaining %” value at WEE1 is “A (0% ≤ substrate protein remaining % ≤80%)”. For the same compound, the “GSPT1 substrate protein remaining %” value at GSPT1 was “A (0% ≤ substrate protein remaining % ≤80%)”. Also, the “IKZF1 substrate protein remaining %” value on IKZF1 is on record as “B (80%< substrate protein remaining % ≤100%)”. For the same compound, the “CK1α substrate protein remaining %” value at CK1α was “A (0% ≤ substrate protein remaining % ≤80%)”. Besides, the “IKZF3 substrate protein remaining %” value at IKZF3 is reported as “B (80%< substrate protein remaining % ≤100%)”. Moreover, the “IKZF2 substrate protein remaining %” value on IKZF2 was “B (80%< substrate protein remaining % ≤100%)”.
For `O=C1CCN(N2Cc3cc(CN4CCN(c5n[nH]c6cc(F)ccc56)CC4)ccc3C2=O)C(=O)N1` [GT-07545, 1-(5-((4-(6-fluoro-1H-indazol-3-yl)piperazin-1-yl)methyl)-1-oxoisoindolin-2-yl)dihydropyrimidine-2,4(1H,3H)-dione], the “WEE1 substrate protein remaining %” value on WEE1 is on record as “A (0% ≤ substrate protein remaining % ≤80%)”. Moreover, the “GSPT1 substrate protein remaining %” value at GSPT1 is “A (0% ≤ substrate protein remaining % ≤80%)”. At IKZF1, the “IKZF1 substrate protein remaining %” value was “A (0% ≤ substrate protein remaining % ≤80%)”. At CK1α, the “CK1α substrate protein remaining %” value is listed as “A (0% ≤ substrate protein remaining % ≤80%)”. Moreover, the “IKZF3 substrate protein remaining %” value on IKZF3 is given as “B (80%< substrate protein remaining % ≤100%)”. The “IKZF2 substrate protein remaining %” value on IKZF2 is “B (80%< substrate protein remaining % ≤100%)”.
For `O=C1CCN(N2Cc3cc(CN4CC=C(c5c[nH]c6cc(F)ccc56)CC4)ccc3C2=O)C(=O)N1` [GT-07574, 1-(5-((4-(6-fluoro-1H-indol-3-yl)-3,6-dihydropyridin-1(2H)-yl)methyl)-1-oxoisoindolin-2-yl)dihydropyrimidine-2,4(1H,3H)-dione], the “WEE1 substrate protein remaining %” value at WEE1 is “A (0% ≤ substrate protein remaining % ≤80%)”. Besides, the “GSPT1 substrate protein remaining %” value on GSPT1 was “A (0% ≤ substrate protein remaining % ≤80%)”. Moreover, on IKZF1, the “IKZF1 substrate protein remaining %” value is given as “B (80%< substrate protein remaining % ≤100%)”. Also, the “CK1α substrate protein remaining %” value at CK1α was “A (0% ≤ substrate protein remaining % ≤80%)”. Further, the “IKZF3 substrate protein remaining %” value at IKZF3 is recorded as “B (80%< substrate protein remaining % ≤100%)”. For the same compound, at IKZF2, the “IKZF2 substrate protein remaining %” value is reported as “A (0% ≤ substrate protein remaining % ≤80%)”.
As for `O=C1CCN(N2Cc3cc(CN4CCC(c5c[nH]c6ncccc56)CC4)ccc3C2=O)C(=O)N1` [GT-07576, 1-(5-((4-(1H-pyrrolo[2,3-b]pyridin-3-yl)piperidin-1-yl)methyl)-1-oxoisoindolin-2-yl)dihydropyrimidine-2,4(1H,3H)-dione], the “WEE1 substrate protein remaining %” value at WEE1 was “A (0% ≤ substrate protein remaining % ≤80%)”. In addition, the “GSPT1 substrate protein remaining %” value at GSPT1 is recorded as “A (0% ≤ substrate protein remaining % ≤80%)”. In addition, the “IKZF1 substrate protein remaining %” value on IKZF1 is listed as “A (0% ≤ substrate protein remaining % ≤80%)”. Besides, the “CK1α substrate protein remaining %” value on CK1α is given as “A (0% ≤ substrate protein remaining % ≤80%)”. Moreover, the “IKZF3 substrate protein remaining %” value at IKZF3 is given as “B (80%< substrate protein remaining % ≤100%)”. The “IKZF2 substrate protein remaining %” value on IKZF2 was “A (0% ≤ substrate protein remaining % ≤80%)”.
Turning to `O=C1CCN(N2Cc3cc(CN4CCC(n5c(=O)[nH]c6cc(F)ccc65)CC4)ccc3C2=O)C(=O)N1` [GT-07579, 1-(5-((4-(5-fluoro-2-oxo-2,3-dihydro-1H-benzo[d]imidazol-1-yl)piperidin-1-yl)methyl)-1-oxoisoindolin-2-yl)dihydropyrimidine-2,4(1H,3H)-dione], the “WEE1 substrate protein remaining %” value at WEE1 is “A (0% ≤ substrate protein remaining % ≤80%)”. For the same compound, the “GSPT1 substrate protein remaining %” value on GSPT1 was “A (0% ≤ substrate protein remaining % ≤80%)”. The “IKZF1 substrate protein remaining %” value at IKZF1 is listed as “A (0% ≤ substrate protein remaining % ≤80%)”. Further, the “CK1α substrate protein remaining %” value on CK1α was “B (80%< substrate protein remaining % ≤100%)”. Besides, the “IKZF3 substrate protein remaining %” value on IKZF3 is reported as “B (80%< substrate protein remaining % ≤100%)”. Further, on IKZF2, the “IKZF2 substrate protein remaining %” value was “A (0% ≤ substrate protein remaining % ≤80%)”.
On to `O=C1CCN(N2C(=O)c3ccc(CN4CC=C(c5c[nH]c6cc(F)ccc56)CC4)cc3C2=O)C(=O)N1` [GT-07580, 2-(2,4-dioxotetrahydropyrimidin-1(2H)-yl)-5-((4-(6-fluoro-1H-indol-3-yl)-3,6-dihydropyridin-1(2H)-yl)methyl)isoindoline-1,3-dione], for which the “WEE1 substrate protein remaining %” value at WEE1 was “A (0% ≤ substrate protein remaining % ≤80%)”. On GSPT1, the “GSPT1 substrate protein remaining %” value is “A (0% ≤ substrate protein remaining % ≤80%)”. Besides, the “IKZF1 substrate protein remaining %” value at IKZF1 was “A (0% ≤ substrate protein remaining % ≤80%)”. Besides, the “CK1α substrate protein remaining %” value on CK1α is “B (80%< substrate protein remaining % ≤100%)”. For the same compound, the “IKZF3 substrate protein remaining %” value on IKZF3 is on record as “A (0% ≤ substrate protein remaining % ≤80%)”. For the same compound, at IKZF2, the “IKZF2 substrate protein remaining %” value is on record as “A (0% ≤ substrate protein remaining % ≤80%)”.
For the compound `Cn1cc(C2CCN(Cc3ccc4c(c3)C(=O)N(N3CCC(=O)NC3=O)C4=O)CC2)c2ccc(F)cc21` [GT-07581, 2-(2,4-dioxotetrahydropyrimidin-1(2H)-yl)-5-((4-(6-fluoro-1-methyl-1H-indol-3-yl)piperidin-1-yl)methyl)isoindoline-1,3-dione], on WEE1, the “WEE1 substrate protein remaining %” value was “A (0% ≤ substrate protein remaining % ≤80%)”. Moreover, at GSPT1, the “GSPT1 substrate protein remaining %” value was “A (0% ≤ substrate protein remaining % ≤80%)”. Moreover, at IKZF1, the “IKZF1 substrate protein remaining %” value is “A (0% ≤ substrate protein remaining % ≤80%)”. The “CK1α substrate protein remaining %” value at CK1α is reported as “B (80%< substrate protein remaining % ≤100%)”. Also, at IKZF3, the “IKZF3 substrate protein remaining %” value was “B (80%< substrate protein remaining % ≤100%)”. In addition, the “IKZF2 substrate protein remaining %” value at IKZF2 is “A (0% ≤ substrate protein remaining % ≤80%)”.
`O=C1CCN(N2C(=O)c3ccc(CN4CCC(c5c[nH]c6ncccc56)CC4)cc3C2=O)C(=O)N1` [GT-07582, 5-((4-(1H-pyrrolo[2,3-b]pyridin-3-yl)piperidin-1-yl)methyl)-2-(2,4-dioxotetrahydropyrimidin-1(2H)-yl)isoindoline-1,3-dione]: the “WEE1 substrate protein remaining %” value on WEE1 is reported as “A (0% ≤ substrate protein remaining % ≤80%)”. Moreover, the “GSPT1 substrate protein remaining %” value on GSPT1 is reported as “A (0% ≤ substrate protein remaining % ≤80%)”. In addition, the “IKZF1 substrate protein remaining %” value at IKZF1 is given as “A (0% ≤ substrate protein remaining % ≤80%)”. For the same compound, on CK1α, the “CK1α substrate protein remaining %” value is “B (80%< substrate protein remaining % ≤100%)”. Also, at IKZF3, the “IKZF3 substrate protein remaining %” value is “B (80%< substrate protein remaining % ≤100%)”. For the same compound, at IKZF2, the “IKZF2 substrate protein remaining %” value is given as “A (0% ≤ substrate protein remaining % ≤80%)”.

These data come from patent publication US20260356819A1, “OXOISOINDOLINYL-SUBSTITUTED […] DERIVATIVE AND USE THEREOF” (GLUETACS THERAPEUTICS (SHANGHAI) CO., LTD., priority 2023, published 2026).
